Consider 18 compounds from PubChem BioAssay AID200 (DTP/NCI, 2004).

In this assay the test system is B6C3F1 mice, B16 melanoma ip, median survival T/C. Description: NCI In Vivo Anticancer Drug Screen. Data for tumor model B16 Melanoma (intraperitoneal) in B6C3F1 mice. To be noted: endpoint: median survival time, schedule: Q01DX009 (ip), higher = longer survival. Put shortly: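 Tumor-bearing mice received test compound; a separate group got vehicle only. Survival was then compared, with results reported as treated over control.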

The mark [1] stands for this setting: dose: 50.0 mg/kg/injection, vehicle: saline.
Where [2] appears, read: dose: 100.0 mg/kg/injection, vehicle: saline with Tween-80.
The mark [3] stands for this setting: dose: 200.0 mg/kg/injection, vehicle: saline with Tween-80.
Where [4] appears, read: dose: 400.0 mg/kg/injection, vehicle: saline with Tween-80.
[5] abbreviates: dose: 1.56 mg/kg/injection, vehicle: saline.
[6] abbreviates: dose: 3.12 mg/kg/injection, vehicle: saline with Tween-80.
Setting [7] is: dose: 3.12 mg/kg/injection, vehicle: saline.
Where [8] appears, read: dose: 6.25 mg/kg/injection, vehicle: saline.
Where [9] appears, read: dose: 6.25 mg/kg/injection, vehicle: saline with Tween-80.
The mark [10] stands for this setting: dose: 12.5 mg/kg/injection, vehicle: saline with Tween-80.
Setting [11] is: dose: 25.0 mg/kg/injection, vehicle: saline with Tween-80.
[12] abbreviates: dose: 50.0 mg/kg/injection, vehicle: saline with Tween-80.
[13] abbreviates: dose: 12.5 mg/kg/injection, vehicle: saline.
Setting [14] is: dose: 25.0 mg/kg/injection, vehicle: saline.
Where [15] appears, read: dose: 3.0 mg/kg/injection, vehicle: saline.

Values joined by “and” are separate entries in the source; they are usually repeats but may differ in a detail not shown here. Identical values can stand only once. Toxic doses and inconclusive results are not listed.

As to `CN(C)/N=N/c1[nH]cnc1C(N)=O.[Cl][Cu][Cl]`, the T/C (dose: 0.5 mg/kg/injection, vehicle: water) is 106 % of control; the T/C (dose: 1.0 mg/kg/injection, vehicle: water) is 106 % of control; the T/C (dose: 2.0 mg/kg/injection, vehicle: water) was 115 % of control; the T/C (dose: 4.0 mg/kg/injection, vehicle: water) is 109 % of control; the T/C (dose: 8.0 mg/kg/injection, vehicle: water) is 109 % of control.

For `O=C1NC(=O)NC(C(=O)O)N1`, the T/C reads like this: (dose: 0.75 mg/kg/injection, vehicle: Klucel (hydroxypropylcellulose) (HPC)) 108 % of control; (dose: 1.5 mg/kg/injection, vehicle: Klucel (hydroxypropylcellulose) (HPC)) 106 % of control; (dose: 3.0 mg/kg/injection, vehicle: Klucel (hydroxypropylcellulose) (HPC)) 116 % of control; (dose: 6.0 mg/kg/injection, vehicle: Klucel (hydroxypropylcellulose) (HPC)) 106 % of control; (dose: 12.0 mg/kg/injection, vehicle: Klucel (hydroxypropylcellulose) (HPC)) 107 % of control.

Consider `C=C(C)C(=O)OC1CC(C)(O)C2(O)CCC(C)(/C=C3\OC(=O)C(COC(C)=O)=C31)O2` (centres undefined), for which the T/C is 96 % of control (dose: 0.62 mg/kg/injection, vehicle: distilled water + Tween-80 + alcohol); 105 % of control (dose: 1.25 mg/kg/injection, vehicle: distilled water + Tween-80 + alcohol); 92 % of control (dose: 2.5 mg/kg/injection, vehicle: distilled water + Tween-80 + alcohol); 89 % of control (dose: 5.0 mg/kg/injection, vehicle: distilled water + Tween-80 + alcohol).

Consider `NC=NCC(=O)O`, for which the T/C is, setting by setting: under setting [1], 108 % of control; (dose: 100.0 mg/kg/injection, vehicle: saline) 105 % of control; (dose: 200.0 mg/kg/injection, vehicle: saline) 97 % of control.

Regarding `COc1nc2c(=O)[nH]c(N)nc2n1C1OC(CO)C(O)C1O` (centres undefined), the T/C is 96 % of control under setting [2], 93 % of control under setting [3] and 91 % of control under setting [4].

With `Cc1cc(N(CC(C)Br)CC(C)Br)ccc1N=Nc1ccccc1C(=O)O` (centres undefined), the T/C is, setting by setting: (dose: 0.78 mg/kg/injection, vehicle: saline) 105 % of control; (dose: 1.56 mg/kg/injection, vehicle: saline with Tween-80) 110 % of control; under setting [5], 98 % of control; under setting [6], 164 % of control; under setting [7], 111 % of control; under setting [8], 108 % of control.

Turning to `COc1c(C=O)c2c(c(OC)c1OC)-c1ccc(OC)c(=O)cc1[C@@H](NC(C)=O)CC2`, the T/C by setting is: (dose: 0.78 mg/kg/injection, vehicle: Klucel (hydroxypropylcellulose) (HPC)) 116 % of control; (dose: 1.56 mg/kg/injection, vehicle: Klucel (hydroxypropylcellulose) (HPC)) 111 % of control and 121 % of control and 124 % of control; (dose: 3.12 mg/kg/injection, vehicle: Klucel (hydroxypropylcellulose) (HPC)) 123 % of control and 107 % of control; (dose: 6.25 mg/kg/injection, vehicle: Klucel (hydroxypropylcellulose) (HPC)) 116 % of control; (dose: 12.5 mg/kg/injection, vehicle: Klucel (hydroxypropylcellulose) (HPC)) 120 % of control; (dose: 12.6 mg/kg/injection, vehicle: Klucel (hydroxypropylcellulose) (HPC)) 114 % of control.

Turning to `Nc1nc2c(ncn2C2OC(CO)C(O)C2N)c(=O)[nH]1` (centres undefined), the T/C under setting [6] was 97 % of control; the T/C under setting [9] is 90 % of control; the T/C under setting [10] was 107 % of control; the T/C under setting [11] was 112 % of control; the T/C under setting [12] is 97 % of control; the T/C under setting [2] was 107 % of control. The T/C under setting [3] is 104 % of control.

`Nc1cc(=O)[nH][nH]1`: the T/C under setting [2] was 91 % of control, the T/C under setting [3] was 96 % of control and the T/C under setting [4] was 98 % of control.

For the compound `CC[N](CC)[Ge]([CH2]C)[CH2]C.CC[N](CC)[Ge]([CH2]C)[CH2]C`, the T/C under setting [5] was 106 % of control; the T/C under setting [7] is 103 % of control; the T/C under setting [8] was 103 % of control; the T/C under setting [13] is 107 % of control; the T/C under setting [14] is 108 % of control.

`C[n+]1c(/C=N/NC(N)=S)ccc2ccccc21`: the T/C by setting is: under setting [9], 92 % of control; under setting [10], 87 % of control; under setting [11], 92 % of control; under setting [12], 94 % of control; under setting [2], 92 % of control.

With `CCCCCCCCCCS(=O)CC(CO)NC(=O)/C=C/c1c(C)[nH]c(=O)[nH]c1=O` (centres undefined), the T/C is 106 % of control (dose: 0.37 mg/kg/injection, vehicle: distilled water + Tween-80); 106 % of control (dose: 0.37 mg/kg/injection, vehicle: water); 95 % of control (dose: 0.75 mg/kg/injection, vehicle: distilled water + Tween-80); 106 % of control (dose: 0.75 mg/kg/injection, vehicle: water); 94 % of control (dose: 1.5 mg/kg/injection, vehicle: distilled water + Tween-80); 108 % of control (dose: 1.5 mg/kg/injection, vehicle: water). The T/C runs as follows: (dose: 3.0 mg/kg/injection, vehicle: distilled water + Tween-80) 100 % of control; (dose: 3.0 mg/kg/injection, vehicle: water) 117 % of control; (dose: 6.0 mg/kg/injection, vehicle: distilled water + Tween-80) 109 % of control; (dose: 6.0 mg/kg/injection, vehicle: water) 114 % of control.

In the case of `CCCCCCCCCCCC(=O)NC1CC(O[C@H]2C[C@](O)(C(=O)CO)Cc3c(O)c4c(c(O)c32)C(=O)c2c(OC)cccc2C4=O)OC(C)C1O` (some centres undefined), the T/C was 171 % of control and 294 % of control under setting [15]; 250 % of control and 333 % of control (dose: 6.0 mg/kg/injection, vehicle: saline); 333 % of control and 357 % of control (dose: 12.0 mg/kg/injection, vehicle: saline); 122 % of control and 357 % of control (dose: 24.0 mg/kg/injection, vehicle: saline); 94 % of control (dose: 48.0 mg/kg/injection, vehicle: saline).

As for `Nc1ncnc2c1c1c(=O)[nH]c(=O)[nH]c1n2C1OC(CO)C(O)C1O` (centres undefined), the T/C reads like this: (dose: 25.0 mg/kg/injection, vehicle: distilled water + Tween-80) 123 % of control; (dose: 200.0 mg/kg/injection, vehicle: distilled water + Tween-80) 172 % of control.

On to `Cc1c2cc(Cl)c3ccccc3c2c[n+]2ccccc12`, for which the T/C under setting [6] is 103 % of control; the T/C under setting [9] is 108 % of control; the T/C under setting [10] was 112 % of control; the T/C under setting [11] was 101 % of control; the T/C under setting [12] is 108 % of control.

On to `COc1cc(NCCCCCCCNC(C)C)c2nccc(C)c2c1`, for which the T/C under setting [7] is 103 % of control, the T/C under setting [8] was 96 % of control, the T/C under setting [13] is 103 % of control and the T/C under setting [14] was 103 % of control.

`O=CC(O)C(O)C(O)C(O)C(=O)O.[NH-]C1CCCCC1[NH-].[Pt+2]` (centres undefined): the T/C by setting is: (dose: 0.19 mg/kg/injection, vehicle: saline) 108 % of control; (dose: 1.5 mg/kg/injection, vehicle: saline) 177 % of control; under setting [15], 187 % of control.

As for `COCC(CN1CCN(c2ccccc2OC)CC1)OC` (centres undefined), the T/C is 100 % of control under setting [13], 99 % of control under setting [14] and 105 % of control under setting [1].
